The values below are quoted from earlier work in US20080280973A1, “Laulimalide Analogues as Therapeutic Agents” (priority 2004, published 2008).

Series [1] concerns HeLa cells, NCI/ADR cells, MDA-MB-435 cell line. Conditions: relative to laulimalide; cell line not specified.
Series [2] concerns multi-drug resistant cell line SKVLB-1.
In series [3] the test system is KB, P388, A549, HT29 and MEL28 cell lines.

With “C16-C17-des-epoxy laulimalide [des-epoxy analogue]”, the “fold less potent than laulimalide” value in series [1] is reported as “approximately 19 fold”.

For the compound `C=C1C[C@H](C)C[C@@H]2CC=C[C@@H](C/C=C\C(=O)O[C@H]([C@@H](O)/C=C/[C@@H]3CC(C)=CCO3)C[C@@H]3O[C@H]3[C@@H](O)C1)O2` [Laulimalide, laulimalide], the IC50 (as a rule, the concentration that gives 50% inhibition) in series [2] is 1200 nM. Further, the anti-tumor potency range result in series [3] is “nanomolar range”.
